From patent US10793568B2, “Hormone receptor modulators for treating metabolic conditions and disorders” (ARDELYX, INC., priority 2016, dated 2020)

How the values were obtained:
[1] = target: ligand binding domain of human FXR (Homo sapiens (Human), UniProt Q96RI1); assay: FXR ligand binding assay (LanthaScreen TR-FRET, SRC2-2 peptide recruitment); details: for pEC50: -log EC50, concentration required to produce 50% activation; for Emax / % Efficacy: extent of activation relative to GW4064; for Emax: read-out: % Efficacy
Chain of ligand binding domain of human FXR (Q96RI1 262-486): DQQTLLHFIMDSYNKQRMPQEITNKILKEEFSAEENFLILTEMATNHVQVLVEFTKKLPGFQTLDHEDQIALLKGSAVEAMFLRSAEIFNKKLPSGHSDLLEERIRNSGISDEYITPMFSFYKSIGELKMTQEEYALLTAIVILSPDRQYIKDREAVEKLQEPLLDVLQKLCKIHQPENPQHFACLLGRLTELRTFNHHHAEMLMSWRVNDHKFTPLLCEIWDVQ

[2] = target: human Farnesoid X receptor ligand-binding domain/Gal4 DNA binding domain chimera (Homo sapiens (Human), UniProt Q96RI1); assay: Cell-based assay of FXR activation (FXR-UAS-bla HEK 293T beta-lactamase reporter); details: cellular FXR beta-lactamase reporter assay; for EC50 / pEC50: FXR-UAS-bla HEK 293T cells, 16 h, pEC50 = -log EC50; for Emax: HEK-293T, read-out: % Efficacy; for Emax / % Efficacy: extent of activation relative to GW4064
Chain of human Farnesoid X receptor ligand-binding domain/Gal4 DNA binding domain chimera (Q96RI1 262-486, change not shown): as the sequence (Q96RI1 262-486) above
Chain of human Farnesoid X receptor ligand-binding domain/Gal4 DNA binding domain chimera (P04386 1-147 partner): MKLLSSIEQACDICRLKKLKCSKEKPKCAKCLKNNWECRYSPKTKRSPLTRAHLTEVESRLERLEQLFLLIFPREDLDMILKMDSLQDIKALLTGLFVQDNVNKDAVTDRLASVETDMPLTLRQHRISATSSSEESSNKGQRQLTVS
Outline: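 Readout is cleavage of the CCF4 FRET substrate (409 nm excitation, blue 447 nm signal) by beta-lactamase, expressed under UAS control after a Gal4–human FXR LBD chimera is activated in HEK 293T cells. Compounds were added as 3-fold dilutions for 16 h at 37 °C in 2% charcoal-stripped FBS medium. Curves were fit to a 3-parameter logistic equation to give pEC50, with % activation relative to GW4064.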

| % Efficacy [1] | pEC50 [2] | % Efficacy [2] | Compound | pEC50 [1] | Emax [1] | EC50 [2] | Emax [2] |
| --- | --- | --- | --- | --- | --- | --- | --- |
| – | – | – | COc1cccc(-c2noc(C3CC3)c2CO[C@@H]2C[C@@H]3C[C@H]2CN3c2nc3c(F)cc(C(=O)O)cc3s2)c1 [Compound I-289, 2-((1S,4S,5R)-5-((5-cyclopropyl-3-(3-methoxyphenyl)isoxazol-4-yl)methoxy)-2-azabicyclo[2.2.1]heptan-2-yl)-4-fluorobenzo[d]thiazole-6-carboxylic acid] | 6.9 | 70% | < 31.6 nM | – |
| – | – | – | O=C(O)c1ccc(N2C(=O)[C@@H]3C[C@H]2C[C@@H]3OCc2c(-c3c(Cl)cccc3Cl)noc2C2CC2)cc1 [Compound I-245, 4-[(1S,4R,5S)-5-{[5-cyclopropyl-3-(2,6-dichlorophenyl)-1,2-oxazol-4-yl]methoxy}-3-oxo-2-azabicyclo[2.2.1]heptan-2-yl]benzoic Acid] | >5.5 | – | < 31.6 nM | 0% |
| – | – | – | O=C(O)c1cc(C2CCOC2)c2nc(N3C[C@@H]4C[C@H]3C[C@H]4OCc3c(-c4c(Cl)cccc4Cl)noc3C3CC3)sc2c1 (stereo partly drawn) [Compound I-251, 2-[(1S,4S,5R)-5-{[5-cyclopropyl-3-(2,6-dichlorophenyl)-1,2-oxazol-4-yl]methoxy}-2-azabicyclo[2.2.1]heptan-2-yl]-4-(oxolan-3-yl)-1,3-benzothiazole-6-carboxylic Acid] | 9.1 | 133% | 0.2 nM | 110% |
| – | – | – | O=C(NCCS(=O)(=O)C1CCOCC1)c1ccc(N2C[C@@H]3C[C@H]2C[C@H]3OCc2c(-c3c(Cl)cccc3Cl)noc2C2CC2)cc1F [Compound I-172, 4-[(1S,4S,5R)-5-{[5-cyclopropyl-3-(2,6-dichlorophenyl)-1,2-oxazol-4-yl]methoxy}-2-azabicyclo[2.2.1]heptan-2-yl]-2-fluoro-N-[2-(oxane-4-sulfonyl)ethyl]benzamide] | 8.4 | 160% | 1 nM | 110% |
| 157% | 9.7 | 107% | O=C(O)c1cc([C@@H]2C[C@H]3CC[C@@H](C2)O3)c2nc(N3C[C@@H]4C[C@H]3C[C@H]4OCc3c(-c4c(Cl)cccc4Cl)noc3C3CC3)sc2c1 [Compound I-256, 2-[(1S,4S,5R)-5-{[5-cyclopropyl-3-(2,6-dichlorophenyl)-1,2-oxazol-4-yl]methoxy}-2-azabicyclo[2.2.1]heptan-2-yl]-4-[(1R,3S,5S)-8-oxabicyclo[3.2.1]octan-3-yl]-1,3-benzothiazole-6-carboxylic Acid] | 8.4 | – | – | – |
| – | – | – | CCCS(=O)(=O)NC(=O)c1cnc(N2C[C@@H]3C[C@H]2C[C@H]3OCc2c(-c3c(Cl)cccc3Cl)noc2C2CC2)c(F)c1 [Compound I-206, 6-((1S,4S,5R)-5-((5-cyclopropyl-3-(2,6-dichlorophenyl)isoxazol-4-yl)methoxy)-2-azabicyclo[2.2.1]heptan-2-yl)-5-fluoro-N-(propylsulfonyl)nicotinamide] | 8.4 | 159% | 1.58 nM | 104% |
| – | – | – | O=C(O)c1cc(OC2CC2)c2nc(N3C[C@@H]4C[C@H]3C[C@H]4OCc3c(C4CCC5(CC4)CC5)noc3C3CC3)sc2c1 [Compound I-278, 4-cyclopropoxy-2-((1S,4S,5R)-5-((5-cyclopropyl-3-(spiro[2.5]octan-6-yl)isoxazol-4-yl)methoxy)-2-azabicyclo[2.2.1]heptan-2-yl)benzo[d]thiazole-6-carboxylic acid] | 7.7 | 96% | 10 nM | 98% |
| – | – | – | O=C(O)CCc1ccc(N2C[C@@H]3C[C@H]2C[C@H]3OCc2c(-c3c(Cl)cccc3Cl)noc2C2CC2)cc1F [Compound I-155, 3-{4-[(1S,4S,5R)-5-{[5-cyclopropyl-3-(2,6-dichlorophenyl)-1,2-oxazol-4-yl]methoxy}-2-azabicyclo[2.2.1]heptan-2-yl]-2-fluorophenyl}propanoic Acid] | 8.3 | 136% | 1 nM | 102% |
| – | – | – | O=C(O)c1ccc(N2C[C@@H]3C[C@H]2C[C@H]3OCc2c(-c3c(Cl)cccc3Cl)noc2C2CC2)nc1 [Compound I-55, 6-[(1S,4S,5R)-5-{[5-cyclopropyl-3-(2,6-dichlorophenyl)-1,2-oxazol-4-yl]methoxy}-2-azabicyclo[2.2.1]heptan-2-yl]pyridine-3-carboxylic Acid] | 7.9 | 121% | 3.16 nM | 104% |
| – | – | – | Cc1cc(C(=O)NCCP(=O)(OCOC(=O)C(C)(C)C)OCOC(=O)C(C)(C)C)ccc1N1C[C@@H]2C[C@H]1C[C@H]2OCc1c(-c2c(Cl)cccc2Cl)noc1C1CC1 [Compound I-174, ({[2-({4-[(1S,4S,5R)-5-{[5-cyclopropyl-3-(2,6-dichlorophenyl)-1,2-oxazol-4-yl]methoxy}-2-azabicyclo[2.2.1]heptan-2-yl]-3-methylphenyl}formamido)ethyl]({[(2,2-dimethylpropanoyl)oxy]methoxy})phosphoryl}oxy)methyl 2,2-dimethylpropanoate] | 8.8 | 161% | 251 nM | 152% |
| – | – | – | O=C(NS(=O)(=O)C1CCC1)c1ccc(N2C[C@@H]3C[C@H]2C[C@H]3OCc2c(-c3c(Cl)cccc3Cl)noc2C2CC2)cc1 [Compound I-183, N-(cyclobutylsulfonyl)-4-((1S,4S,5R)-5-((5-cyclopropyl-3-(2,6-dichlorophenyl)isoxazol-4-yl)methoxy)-2-azabicyclo[2.2.1]heptan-2-yl)benzamide] | 8.6 | 163% | 0.1 nM | 119% |
| – | – | – | Cc1cccc(C)c1-c1noc(C2CC2)c1CO[C@@H]1C[C@@H]2C[C@H]1CN2c1nc2c(C)cc(C(=O)O)cc2s1 [Compound I-276, 2-[(1S,4S,5R)-5-{[5-cyclopropyl-3-(2,6-dimethylphenyl)-1,2-oxazol-4-yl]methoxy}-2-azabicyclo[2.2.1]heptan-2-yl]-4-methyl-1,3-benzothiazole-6-carboxylic Acid] | 8.2 | 124% | 3.98 nM | 114% |
| – | – | – | O=C(NS(=O)(=O)CCOC(=O)C1CC1)c1ccc(N2C[C@@H]3C[C@H]2C[C@H]3OCc2c(-c3c(Cl)cccc3Cl)noc2C2CC2)cc1 [Compound I-212, 2-[({4-[(1S,4S,5R)-5-{[5-cyclopropyl-3-(2,6-dichlorophenyl)-1,2-oxazol-4-yl]methoxy}-2-azabicyclo[2.2.1]heptan-2-yl]phenyl}formamido)sulfonyl]ethyl Cyclopropanecarboxylate] | 9.2 | 136% | 2.51 nM | 107% |
| – | – | – | O=C(O)c1ccc(N2C(=O)[C@@H]3C[C@H]2C[C@H]3OCc2c(-c3c(F)cccc3C3CC3)noc2C2CC2)cc1 [Compound I-311, 4-[(1S,4R,5R)-5-{[5-cyclopropyl-3-(2-cyclopropyl-6-fluorophenyl)-1,2-oxazol-4-yl]methoxy}-3-oxo-2-azabicyclo[2.2.1]heptan-2-yl]benzoic Acid] | 7.8 | 148% | 3.98 nM | 105% |
| – | – | – | O=C(O)c1ccc(N2C(=O)[C@@H]3C[C@H]2C[C@H]3OCc2c(-c3c(Cl)cccc3Cl)noc2C2CC2)c(F)c1 [Compound I-315, 4-[(1S,4R,5R)-5-{[5-cyclopropyl-3-(2,6-dichlorophenyl)-1,2-oxazol-4-yl]methoxy}-3-oxo-2-azabicyclo[2.2.1]heptan-2-yl]-3-fluorobenzoic Acid] | 7.4 | 157% | 25.1 nM | 106% |
| – | – | – | CCCS(=O)(=O)NC(=O)c1ccc(N2C[C@@H]3C[C@H]2C[C@H]3OCc2c(-c3c(Cl)cccc3Cl)noc2C2CC2)cc1 [Compound I-59, 4-[(1S,4S,5R)-5-{[5-cyclopropyl-3-(2,6-dichlorophenyl)-1,2-oxazol-4-yl]methoxy}-2-azabicyclo[2.2.1]heptan-2-yl]-N-(propane-1-sulfonyl)benzamide] | 8.2 | 176% | 0.1 nM | 103% |
| – | – | – | O=C(O)Cc1ccc(N2C[C@@H]3C[C@H]2C[C@H]3OCc2c(-c3c(Cl)cccc3Cl)noc2C2CC2)cc1 [Compound I-146, 2-{4-[(1S,4S,5R)-5-{[5-cyclopropyl-3-(2,6-dichlorophenyl)-1,2-oxazol-4-yl]methoxy}-2-azabicyclo[2.2.1]heptan-2-yl]phenyl}acetic Acid] | 7.9 | 134% | 7.94 nM | 101% |
| – | – | – | O=C(O)c1ccc(N2C[C@@H]3C[C@H]2C[C@H]3OCc2c(-c3c(Cl)cccc3Cl)noc2C2CC2)cc1 [Compound I-52, 4-[(1S,4S,5R)-5-[[5-cyclopropyl-3-(2,6-dichlorophenyl)-1,2-oxazol-4-yl]methoxy]-2-azabicyclo[2.2.1]heptan-2-yl]benzoic acid] | 8.8 | 148% | 1 nM | 111% |
| 150% | 9.3 | 104% | O=C(O)c1cc([C@H]2C[C@H]3CC[C@@H](C2)O3)c2nc(N3C[C@@H]4C[C@H]3C[C@H]4OCc3c(-c4c(Cl)cccc4Cl)noc3C3CC3)sc2c1 [Compound I-255, 2-[(1S,4S,5R)-5-{[5-cyclopropyl-3-(2,6-dichlorophenyl)-1,2-oxazol-4-yl]methoxy}-2-azabicyclo[2.2.1]heptan-2-yl]-4-[(1R,3R,5S)-8-oxabicyclo[3.2.1]octan-3-yl]-1,3-benzothiazole-6-carboxylic Acid] | 8.4 | – | – | – |
